Here are results for 2 compounds from patent US8106023B2, “1,4-benzothiepin-1, 1-dioxide derivatives with improved properties method for producing the same, drugs containing said compounds and the use thereof” (Sanofi-Aventis Deutschland GmbH, priority 2006, dated 2012).

For the assay, the target named is T1, human IBAT (Homo sapiens, UniProt Q12908).
T1 construct: Bases 599 to 1645 correspond to the complete coding region of human IBAT; expressed in transfected cells; pcDNA1 vector
T1 sequence (Q12908 1-348): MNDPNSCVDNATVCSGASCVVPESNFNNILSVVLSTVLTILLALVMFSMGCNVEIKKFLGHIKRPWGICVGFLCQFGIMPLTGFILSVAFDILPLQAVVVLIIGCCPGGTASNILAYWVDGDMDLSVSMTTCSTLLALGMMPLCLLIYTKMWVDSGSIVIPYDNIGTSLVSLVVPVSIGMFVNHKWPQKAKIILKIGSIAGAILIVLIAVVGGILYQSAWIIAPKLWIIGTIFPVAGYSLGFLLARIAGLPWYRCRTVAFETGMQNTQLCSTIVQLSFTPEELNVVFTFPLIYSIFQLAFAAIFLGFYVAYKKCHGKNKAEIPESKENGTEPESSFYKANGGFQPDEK
Briefly: in vitro IBAT inhibition assay: IBAT-dependent uptake of [3H]-taurocholic acid into CHO-hIBAT cells. The format is cell-based. The settings on record: 10 μM taurocholic acid, 60 min at room temperature, read-out: IC-50 (human IBAT).

Structures are written as SMILES.

Experimental: The cell clone with the highest uptake activity for [^3H]-TCA, referred to hereinafter as CHO-hIBAT, was selected for the further assays and further cultured in the presence of 400 μg/ml Geneticin.
3. Measurement of the Inhibitory Effect of the Compound of the Invention on the IBAT-Dependent Uptake of Taurocholic Acid into Cells
CHO-hIBAT cells were seeded in a concentration of 40 000 cells per well in poly-D-lysine-coated 96-well plates in cell culture medium and cultured for 24 h. […] Finally, 100 μl of scintillation fluid were added to each well, and the radioactivity taken up into the cells was determined in a MicroBeta Scintillation Microplate Reader from Wallac.
The half-maximum inhibitory effect of the test compound (IC50 value, inhibitory concentration 50) was determined in the following way: • 1. […] This is the measurement in the absence of substance, measured in sodium-containing transport assay buffer. • 2. […] This is the measurement in the absence of substance, measured in sodium-free transport assay buffer. • 3. […]

In the case of `CCCC[C@]1(CC)CS(=O)(=O)c2ccc(N(C)C)cc2[C@@H](c2cccc(NC(=O)N[C@@H]3O[C@H](CO)[C@@H](O)[C@H](O)[C@H]3O)c2)[C@H]1O` [Example 1], the IC50 was 2.5 nM.
For the compound `CCCCC1(CCCC)CS(=O)(=O)c2ccc(N(C)C)cc2[C@@H](c2cccc(NC(=O)N[C@@H]3O[C@H](CO)[C@@H](O)[C@H](O)[C@H]3O)c2)[C@H]1O` [Example 2], the IC50 was 6 nM.
